Experimental data from patent US20050154229A1, “Maleic acid salt of(2s)-n-{5-[amino(imino)methy]-2-thienyl}methyl-1-{(2r)-2-[(carboxymethyl)amino]-3,3-diphenylpropanoyl}-2-pyrrolidine carboxamide and a process for” (priority 2002, published 2005).
Where a name gives a salt, the structure may show the parent alone.

How the values were obtained:
Type in all cases: physicochemical
[1] = Moisture absorption and dehumidification tests at defined relative humidities (condition observed, weight change); conditions: two days or more
Procedure: After 40 mg of the amorphous form of maleic acid salt prepared in Example 1 was thinly coated onto a beaker, the sample was moisture-absorbed by placing it at each relative humidity of 33%, 57%, 64%, 75% and 93% for two days or more and its condition was observed. In order to obtain each relative humidity above, as shown in the table below, saturated aqueous solutions of salts were prepared and then placed in a desiccator, and the desiccator was sealed.
100 mg of the crystalline form of maleic acid salt prepared in Example 2 was thinly coated onto a beaker and then placed at each relative humidity of 33%, 57%, 64%, 75% and 93% for two days or more to be moisture-absorbed. Thereafter, the weight change of the sample was measured while its condition is observed. In order to obtain each relative humidity above, as shown in Table 2 of Test example 2, saturated aqueous solutions of salts were prepared and then placed in a desiccator and the desiccator was sealed.
The method as described in Test example 2 was applied to the amorphous diHCl salt prepared in Comparative Example 1. From observing its change at each relative humidity, it is shown that the salt was deliquesced at the relative humidity of 75%. […] Therefore, it can be shown that the maleic acid salt is the most excellent among various acid salts.

[2] = Powder X-ray diffraction test during moisture absorption and dehumidification; conditions: vacuum dried, then relative humidity 33%, 53%, 64%, 75% and 93%, two days or more each
Procedure: 40 mg of the crystalline form of maleic acid salt prepared in Example 2 was thinly coated onto a sample holder and then the powder X-ray diffraction test was conducted according to the following conditions. By using Rigaku Geigeflex D/max-III C apparatus, the test was conducted at 35 kV, 20 mA.
40 mg of the maleic acid salt prepared in Example 2 was thinly coated onto a sample holder. Immediately after the sample was vacuum dried in the presence of P2O5, and after the sample was placed for moisture absorption at each relative humidity of 33%, 53%, 64%, 75% and 93% for two days or more, respectively, the powder X-ray diffraction test of the sample was conducted according to the conditions represented in the above Test example 1 to observe change of the crystalline form during moisture absorption. While lowering the relative humidity, the same test was repeated to observe change of the crystalline form during dehumidification. In order to obtain each relative humidity above, as shown in Table 2 of Test example 2, saturated aqueous solutions of salts were prepared and then placed in a desiccator and the desiccator was sealed.

[3] = Test of the dissolution rate per unit area (0.5 cm^2 disk in buffer solutions)
Procedure: Some compounds may have difficulty in being absorbed due to a low dissolution rate. To confirm the above difficulty beforehand, a disk having the area of 0.5 cm^2 is prepared, and then its dissolution rate in various media is measured. The dissolution amount over time is measured and its value is divided by the disk's area. The value is the dissolution rate per unit area. If the value is usually 1 mg/min/cm^2 or more, it can be said that there is no phenomenon for the drug not to be absorbed due to the low dissolution rate. If the value is 0.1 mg/min/cm^2 or less, it can be said that the drug has a problem of absorption due to the low dissolution rate (see, Howard C. Ansel, Nicholas G. Popovich and Loyd V. Allen, 1995, Pharmaceutical Dosage Forms and Drug Delivery Systems, 6th ed., Williams & Wilkins, pp.109 and Jens T. Carstensen, 1996, Modern Pharmaceutics: Gilbert S. Banker and Christopher T. Rhodes (Ed.), Drugs and the pharmaceutical sciences, Vol. 72, 3rd ed., Dekker, pp. 233.). Thus, measuring the dissolution rate per unit area has a very significant meaning in predicting the absorption problem that may occur in in vivo test of the drug later. Therefore, a compound having an excellent dissolution rate per unit area should be selected as a candidate for the drug development.
200 mg of the crystalline form of maleic acid salt prepared in Example 2 was put into a mold. By applying pressure on the mold, a disk having the area of 0.5 cm^2 was prepared and the disk was added to each of the buffer solutions (600 ml) of pH 3.8 and 7.4 to conduct the dissolution test. A portion of the solution was periodically taken and its concentration was measured to determine the dissolution rate per unit area.
The same test as Test example 5 was conducted on the free compound of Formula 1. The dissolution rate per unit area of the free compound was 1.3 mg/min/cm^2 at pH 3.8 and 0.3 mg/min/cm^2 at pH 7.4.

| condition observed after moisture absorption ([1]; relative humidity of 75%) | condition observed after moisture absorption ([1]; relative humidity of 93%) | weight increase on moisture absorption based on initial weight ([1]; relative humidity of 33%) [%] | weight increase on moisture absorption based on initial weight ([1]; relative humidity of 57%) [%] | weight increase on moisture absorption based on initial weight ([1]; relative humidity of 64%) [%] | weight increase on moisture absorption based on initial weight ([1]; relative humidity of 75%) [%] | weight increase on moisture absorption based on initial weight ([1]; relative humidity of 93%) [%] | change of the powder X-ray diffraction diagram (crystalline form) during moisture absorption and dehumidification [2] | dissolution rate per unit area ([3]; buffer solution pH 3.8, 600 ml) [mg/min/cm^2] | dissolution rate per unit area ([3]; buffer solution pH 7.4, 600 ml) [mg/min/cm^2] | SMILES |
| --- | --- | --- | --- | --- | --- | --- | --- | --- | --- | --- |
| deliquesced | – | – | – | – | – | – | – | – | – | N=C(N)c1ccc(CNC(=O)[C@@H]2CCCN2C(=O)[C@H](NCC(=O)O)C(c2ccccc2)c2ccccc2)s1 [amorphous diHCl salt] |
| hardened | deliquesced | – | – | – | – | – | – | – | – | N=C(N)c1ccc(CNC(=O)[C@@H]2CCCN2C(=O)[C@H](NCC(=O)O)C(c2ccccc2)c2ccccc2)s1.O=C(O)/C=C\C(=O)O [amorphous form of maleic acid salt, maleic acid salt of (2S)-N-{5-[amino(imino)methyl]-2-thienyl}methyl-1-{(2R)-2-[(carboxymethyl)amino]-3,3-diphenylpropanoyl}-2-pyrrolidine carboxamide] |
| – | not deliquesced | 1.4 | 3.0 | 4.3 | 4.1 | 6.7 | did not show any change | 11.8 | 1.7 | N=C(N)c1ccc(CNC(=O)[C@@H]2CCCN2C(=O)[C@H](NCC(=O)O)C(c2ccccc2)c2ccccc2)s1.O=C(O)/C=C\C(=O)O [crystalline form of maleic acid salt, maleic acid salt of (2S)-N-{5-[amino(imino)methyl]-2-thienyl}methyl-1-{(2R)-2-[(carboxymethyl)amino]-3,3-diphenylpropanoyl}-2-pyrrolidine carboxamide] |
| – | – | – | – | – | – | – | – | 1.3 | 0.3 | N=C(N)c1ccc(CNC(=O)[C@@H]2CCCN2C(=O)[C@H](NCC(=O)O)C(c2ccccc2)c2ccccc2)s1 [free compound, (2S)-N-{5-[amino(imino)methyl]-2-thienyl}methyl-1-{(2R)-2-[(carboxymethyl)amino]-3,3-diphenylpropanoyl}-2-pyrrolidine carboxamide] |
